This note sets out measurements from ChEMBL document CHEMBL1201862, “PubChem BioAssay data set” (2004).

A word on the AC50: it is the concentration at which the activity in the assay is half-maximal. One may read the IC50 as the concentration needed to halve the response being measured. Broadly, the EC50 is the midpoint of the concentration-response curve.

Active and inactive are the calls of the source.

Series [1] has as its target Cytochrome P450 2C9 (Homo sapiens, UniProt P11712).
The target in series [2] is Cytochrome P450 2C19 (Homo sapiens, UniProt P33261). As to the kind of experiment: Cytochrome panel assay with activity outcomes. Panel member name: p450-cyp2c19 Compounds with AC50 equal or less than 10 uM are considered active. The class given is functional.
Series [3] addresses FAD-linked sulfhydryl oxidase ALR (Homo sapiens, UniProt P55789). Kind of series: inhibitors of human ALR sulfhydryl oxidase, dose response, biochemical, H2O2 detection, luminescence, cherry-pick (AID 493248).
Series [4] is described as follows: cells. The class given is functional.
A short description of series [5]: Luminescence Cell-Based Dose Confirmation HTS to Identify Inhibitors of Platelet Dense Granule Release. [Related pubchem assays: 1663 (Primary HTS), 1678 (Summary of Project)]. The class given is functional.
In series [6] the target is T1, Calpain-2 catalytic subunit (Sus scrofa, UniProt P43367).
T1 sequence (P43367 whole entry): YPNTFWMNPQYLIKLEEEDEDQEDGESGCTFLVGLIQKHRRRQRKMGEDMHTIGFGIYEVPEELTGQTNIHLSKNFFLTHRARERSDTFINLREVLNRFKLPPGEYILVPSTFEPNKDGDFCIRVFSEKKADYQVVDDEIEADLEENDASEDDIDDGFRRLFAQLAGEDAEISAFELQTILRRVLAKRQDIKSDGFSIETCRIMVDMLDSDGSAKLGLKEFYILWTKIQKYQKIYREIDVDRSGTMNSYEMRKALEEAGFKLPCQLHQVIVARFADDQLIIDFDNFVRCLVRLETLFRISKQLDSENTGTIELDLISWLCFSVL
Kind of series: pig calpain II inhibitor potency, dose response, biochemical, fluorogenic peptide substrate (AID 1420). The class given is functional.

For series [7], the target named is Luciferin 4-monooxygenase (Photinus pyralis, UniProt P08659). Kind of series: firefly luciferase enzyme inhibitors, dose response, biochemical, luminescence (AID 1891).
Series [8] addresses T2, Ubiquitin-conjugating enzyme E2 N (Homo sapiens, UniProt P61088).
T2 sequence (P61088 whole entry): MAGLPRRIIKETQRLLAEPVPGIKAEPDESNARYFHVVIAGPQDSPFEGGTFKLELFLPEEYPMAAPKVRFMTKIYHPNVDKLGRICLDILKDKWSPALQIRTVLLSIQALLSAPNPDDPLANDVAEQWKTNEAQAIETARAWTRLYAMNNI
The class given is functional.

The target of series [9] is T3, DNA repair protein RAD52 homolog (Homo sapiens, UniProt P43351).
T3 sequence (P43351 whole entry): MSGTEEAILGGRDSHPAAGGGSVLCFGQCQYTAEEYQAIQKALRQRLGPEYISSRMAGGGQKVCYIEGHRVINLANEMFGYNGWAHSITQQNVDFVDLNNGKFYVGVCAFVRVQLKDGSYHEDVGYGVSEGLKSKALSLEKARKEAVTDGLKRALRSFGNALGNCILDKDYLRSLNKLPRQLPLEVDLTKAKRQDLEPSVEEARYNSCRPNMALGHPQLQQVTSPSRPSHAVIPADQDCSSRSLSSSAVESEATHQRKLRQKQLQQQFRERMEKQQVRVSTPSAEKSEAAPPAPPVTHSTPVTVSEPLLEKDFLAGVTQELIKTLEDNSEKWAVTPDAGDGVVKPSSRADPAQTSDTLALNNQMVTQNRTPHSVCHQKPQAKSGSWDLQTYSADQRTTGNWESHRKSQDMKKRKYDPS
The class given is functional, biochemical.

Series [10] in a line: Luminescence Cell-Based Dose Response HTS to Identify Activators of Luciferase Translation or Activity in H4 […] Cells. [Related pubchem assays: 1829 (Project Summary), 1814 (Primary HTS)]. The class given is functional.
Series [11] has as its system H4. Kind of series: Luminescence Cell-Based Dose Response HTS to Identify Activators of 5'UTR Stem-Loop Driven Prion Protein mRNA Translation in H4 Neuroglioblastoma Cells. [Related pubchem assays: 1829 (Project Summary), 1814 (Primary HTS)]. The class given is functional. As to conditions: Homo sapiens.
Series [12] in a line: Luminescence Cell-Based Dose Confirmation HTS to Identify Activators of 5'UTR Stem-Loop Driven Alpha-Synuclein mRNA Translation in H4 Neuroglioblastoma Cells. [Related pubchem assays: 1829 (Project Summary), 1814 (Primary HTS)]. The class given is functional.
Series [13] is described as follows: Luminescence Cell-Based Dose Retest to Confirm Inhibitors of Cancer Stem Cells. [Related pubchem assays (depositor defined):AID2717, AID2721]. The class given is functional. As to conditions: Homo sapiens.
The target in series [14] is Nonstructural protein 1 (Influenza A virus, UniProt Q194T2). The class given is functional, Influenza A virus (A/California/07/2009(H1N1)).
The target in series [15] is T4, Cytochrome P450 1A2 (Homo sapiens, UniProt P05177).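 Also: PubChem cytochrome P450 panel assay, CYP1A2 panel member.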
T4 sequence (P05177 whole entry): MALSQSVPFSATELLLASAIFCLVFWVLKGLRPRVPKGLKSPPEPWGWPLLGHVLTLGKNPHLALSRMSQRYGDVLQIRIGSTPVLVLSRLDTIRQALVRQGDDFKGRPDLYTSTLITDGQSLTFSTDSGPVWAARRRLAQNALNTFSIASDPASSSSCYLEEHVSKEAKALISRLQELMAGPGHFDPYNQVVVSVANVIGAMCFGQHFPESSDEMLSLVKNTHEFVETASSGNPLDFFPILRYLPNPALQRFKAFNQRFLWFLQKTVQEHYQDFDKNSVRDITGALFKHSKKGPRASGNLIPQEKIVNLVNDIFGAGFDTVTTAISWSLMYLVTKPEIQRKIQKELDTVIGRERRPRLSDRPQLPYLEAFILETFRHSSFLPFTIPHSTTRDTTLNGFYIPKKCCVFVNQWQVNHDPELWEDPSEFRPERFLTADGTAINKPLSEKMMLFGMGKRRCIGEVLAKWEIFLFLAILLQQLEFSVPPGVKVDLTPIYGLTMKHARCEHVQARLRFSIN

Series [16] addresses T5, Rac GTPase-activating protein 1 (Homo sapiens, UniProt Q9H0H5).
T5 sequence (Q9H0H5 whole entry): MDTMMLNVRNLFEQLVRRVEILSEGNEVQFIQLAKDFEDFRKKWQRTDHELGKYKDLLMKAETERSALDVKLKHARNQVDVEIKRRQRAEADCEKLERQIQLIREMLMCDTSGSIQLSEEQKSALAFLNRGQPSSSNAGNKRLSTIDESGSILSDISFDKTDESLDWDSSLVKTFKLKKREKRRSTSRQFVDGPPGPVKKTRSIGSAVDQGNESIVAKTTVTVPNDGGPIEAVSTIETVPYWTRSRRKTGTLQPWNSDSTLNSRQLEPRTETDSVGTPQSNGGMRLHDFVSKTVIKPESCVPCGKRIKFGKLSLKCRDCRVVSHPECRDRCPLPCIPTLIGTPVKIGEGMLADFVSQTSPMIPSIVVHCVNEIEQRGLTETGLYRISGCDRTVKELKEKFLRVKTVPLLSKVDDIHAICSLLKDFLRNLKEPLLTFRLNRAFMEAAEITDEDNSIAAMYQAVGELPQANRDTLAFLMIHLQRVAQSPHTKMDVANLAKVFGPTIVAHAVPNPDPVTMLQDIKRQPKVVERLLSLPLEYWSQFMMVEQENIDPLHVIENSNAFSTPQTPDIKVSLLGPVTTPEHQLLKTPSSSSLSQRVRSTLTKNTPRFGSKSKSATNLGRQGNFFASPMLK
As to the kind of experiment: MgcRacGAP GTPase-activating activity inhibitors, confirmation, biochemical, ADP Hunter fluorescence, primary and confirmatory (AID 624330). The class given is functional.

The nature of series [17]: inhibitors of intracellular T. cruzi replication, confirmation, NIH3T3 host cells, beta-gal luminescence (AID 2044).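 Also: intracellular parasites grown in NIH/3T3 mouse fibroblasts as host cells; luminescent beta-galactosidase reporter signal from transgenic T. cruzi replicating inside host cells; inhibitors lower the luminescence signal.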 The class given is functional, cell-based.
The nature of series [18]: cytotoxicity toward NIH3T3 fibroblasts, dose response, counter-screen, cell-based, ATP luminescence, mouse fibroblasts (AID 2010).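 Also: cells exposed to compound for about 90 hours before reading.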 The class given is functional. As to conditions: NIH3T3. For orientation: A counterscreen serves to expose hits that act by an unwanted route or on another target.
Series [19] concerns the target Cytochrome P450 2D6 (Homo sapiens, UniProt P10635).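 Also: CYP2D6 member of a cytochrome P450 panel assay.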
Series [20] can be described thus: inhibitors of clade B AD8 Env fusion, dose response, cell-based, cherry-pick (AID 652062).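 Also: luciferase signal from cell-cell fusion driven by HIV-1 clade B AD8 Env; potency is for inhibitors of fusion seen as a drop in luminescence.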 The class given is functional.
Series [21] has as its target Cytochrome P450 3A4 (Homo sapiens, UniProt P08684).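 Also: CYP3A4 tested as one member of a cytochrome P450 panel screen.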

Sequence of Cytochrome P450 2C19 (P33261 whole entry): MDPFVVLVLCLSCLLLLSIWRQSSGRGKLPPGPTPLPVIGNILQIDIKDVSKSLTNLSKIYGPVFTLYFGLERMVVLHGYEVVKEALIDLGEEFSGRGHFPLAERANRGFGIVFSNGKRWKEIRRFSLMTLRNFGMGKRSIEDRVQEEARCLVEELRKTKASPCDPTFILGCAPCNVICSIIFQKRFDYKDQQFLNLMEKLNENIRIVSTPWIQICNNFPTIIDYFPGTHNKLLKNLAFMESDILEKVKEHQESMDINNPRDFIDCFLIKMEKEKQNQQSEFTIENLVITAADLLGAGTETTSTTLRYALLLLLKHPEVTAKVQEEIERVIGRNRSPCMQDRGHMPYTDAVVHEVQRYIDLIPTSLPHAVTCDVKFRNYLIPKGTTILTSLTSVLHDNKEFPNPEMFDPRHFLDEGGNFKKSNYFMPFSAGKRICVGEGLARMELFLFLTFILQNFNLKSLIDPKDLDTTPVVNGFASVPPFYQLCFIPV
Sequence of Cytochrome P450 2C9 (P11712 whole entry): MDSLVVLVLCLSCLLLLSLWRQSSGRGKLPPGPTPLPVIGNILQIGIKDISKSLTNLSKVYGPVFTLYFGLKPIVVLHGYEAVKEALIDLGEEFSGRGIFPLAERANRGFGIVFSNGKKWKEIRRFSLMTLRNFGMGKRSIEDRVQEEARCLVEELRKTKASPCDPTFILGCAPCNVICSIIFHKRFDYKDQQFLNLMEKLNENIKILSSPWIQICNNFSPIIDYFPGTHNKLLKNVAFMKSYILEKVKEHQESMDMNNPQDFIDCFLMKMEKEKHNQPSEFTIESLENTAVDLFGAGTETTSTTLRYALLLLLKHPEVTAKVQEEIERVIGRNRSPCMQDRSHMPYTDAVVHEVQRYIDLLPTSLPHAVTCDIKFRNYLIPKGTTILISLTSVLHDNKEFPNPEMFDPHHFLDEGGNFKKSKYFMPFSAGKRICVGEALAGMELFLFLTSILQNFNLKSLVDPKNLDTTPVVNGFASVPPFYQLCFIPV
Sequence of Nonstructural protein 1 (Q194T2 whole entry): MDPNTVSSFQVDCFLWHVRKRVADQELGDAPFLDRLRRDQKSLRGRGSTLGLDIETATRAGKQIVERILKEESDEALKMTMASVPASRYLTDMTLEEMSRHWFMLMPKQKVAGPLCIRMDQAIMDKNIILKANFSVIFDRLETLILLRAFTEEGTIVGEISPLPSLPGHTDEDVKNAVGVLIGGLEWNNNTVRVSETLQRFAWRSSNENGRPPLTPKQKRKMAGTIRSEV
Sequence of FAD-linked sulfhydryl oxidase ALR (P55789 whole entry): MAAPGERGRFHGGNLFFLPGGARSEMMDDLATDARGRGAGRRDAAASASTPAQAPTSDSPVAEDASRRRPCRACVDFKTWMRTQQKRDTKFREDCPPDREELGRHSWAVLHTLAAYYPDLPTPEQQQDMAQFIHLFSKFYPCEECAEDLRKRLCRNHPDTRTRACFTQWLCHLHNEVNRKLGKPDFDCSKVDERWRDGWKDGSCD
Sequence of Cytochrome P450 3A4 (P08684 whole entry): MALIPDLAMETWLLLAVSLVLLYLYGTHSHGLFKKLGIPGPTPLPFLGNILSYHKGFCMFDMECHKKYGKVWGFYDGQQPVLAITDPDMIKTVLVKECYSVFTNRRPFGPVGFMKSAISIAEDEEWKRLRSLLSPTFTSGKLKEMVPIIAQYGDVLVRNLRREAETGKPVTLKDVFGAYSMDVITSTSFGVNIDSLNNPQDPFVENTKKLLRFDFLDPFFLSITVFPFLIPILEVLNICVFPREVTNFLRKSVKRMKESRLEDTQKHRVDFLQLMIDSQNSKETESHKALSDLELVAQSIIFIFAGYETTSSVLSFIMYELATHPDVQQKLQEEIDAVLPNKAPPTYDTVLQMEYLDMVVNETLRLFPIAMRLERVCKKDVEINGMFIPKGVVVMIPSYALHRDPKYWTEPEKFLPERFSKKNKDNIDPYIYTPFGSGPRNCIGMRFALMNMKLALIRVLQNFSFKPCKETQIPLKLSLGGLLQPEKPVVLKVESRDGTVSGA
Sequence of Luciferin 4-monooxygenase (P08659 whole entry): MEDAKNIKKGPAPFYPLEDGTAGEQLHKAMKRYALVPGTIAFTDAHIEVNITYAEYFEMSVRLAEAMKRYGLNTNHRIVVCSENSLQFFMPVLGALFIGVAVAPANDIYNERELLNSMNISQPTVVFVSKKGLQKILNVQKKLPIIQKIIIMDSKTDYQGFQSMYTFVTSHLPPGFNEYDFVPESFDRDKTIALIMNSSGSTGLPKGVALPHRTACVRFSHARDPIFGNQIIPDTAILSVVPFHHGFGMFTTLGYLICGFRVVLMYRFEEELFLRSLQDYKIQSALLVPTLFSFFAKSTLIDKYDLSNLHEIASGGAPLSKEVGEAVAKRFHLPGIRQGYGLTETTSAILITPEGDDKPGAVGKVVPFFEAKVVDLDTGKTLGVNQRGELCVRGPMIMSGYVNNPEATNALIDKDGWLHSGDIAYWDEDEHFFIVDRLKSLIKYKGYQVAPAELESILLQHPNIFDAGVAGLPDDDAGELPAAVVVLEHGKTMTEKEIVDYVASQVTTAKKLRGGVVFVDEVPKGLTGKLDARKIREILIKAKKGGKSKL
Sequence of Cytochrome P450 2D6 (P10635 whole entry, the tested form may be a part): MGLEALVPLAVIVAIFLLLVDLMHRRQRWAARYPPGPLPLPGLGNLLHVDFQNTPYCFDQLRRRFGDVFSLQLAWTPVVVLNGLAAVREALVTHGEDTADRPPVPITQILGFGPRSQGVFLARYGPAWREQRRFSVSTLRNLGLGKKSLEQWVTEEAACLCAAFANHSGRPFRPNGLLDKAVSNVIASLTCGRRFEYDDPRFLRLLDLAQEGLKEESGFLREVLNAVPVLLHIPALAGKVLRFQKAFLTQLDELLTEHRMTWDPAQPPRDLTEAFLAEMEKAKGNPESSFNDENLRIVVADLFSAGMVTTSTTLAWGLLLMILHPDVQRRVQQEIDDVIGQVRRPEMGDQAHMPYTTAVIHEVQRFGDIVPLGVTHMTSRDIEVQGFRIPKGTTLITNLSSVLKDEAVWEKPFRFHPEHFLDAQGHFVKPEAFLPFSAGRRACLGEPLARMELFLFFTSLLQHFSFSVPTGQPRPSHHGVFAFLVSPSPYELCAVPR

Consider `CCCCN(C)CCCNC(=O)C[S+]([O-])Cc1nc(-c2ccc(OC)c(OC)c2)oc1C` (stereo not drawn), for which the AC50 entry in [1] and in [2] was “inconclusive” in each case.

In the case of `Cn1c(S)nnc1CSCc1ccc(Cl)c(Cl)c1`, the half-maximal activity concentration (AC50) in series [3] is 3.93 µM (active).

Take `COc1cc(OC)c2ccc(=O)oc2c1C(CC(=O)N1CCCC1)c1ccc(N(C)C)cc1` (stereo not drawn): the AC50 in series [3] is 2.89 µM (active). In the case of `O=C(c1ccc([N+](=O)[O-])o1)N1CCN(Cc2ccccc2)CC1`, the IC50 in [4] was 0.55 µM (active). In the case of `Brc1ccc(-c2ccc(CNCc3ccccn3)o2)cc1`, the IC50 in [4] was 1.25 µM (active). Turning to `CCN(C(=O)CN1CCN(c2ccccc2O)CC1)c1c(N)n(Cc2ccccc2)c(=O)[nH]c1=O`, the AC50 in [3] is 16.2 µM (active).

As to `O=C(Nc1cnn(Cc2ccc(F)cc2)c1)C(c1ccccc1)c1ccccc1`, the EC50 in [5] is 18.2 µM (active); in [7] it was 49.5 µM (active). Moreover, the IC50 in series [6] was 9.63 µM (not active).

In the case of `Cc1ccc(C(=O)N/C(=C\c2ccc(-c3cccc([N+](=O)[O-])c3)o2)C(=O)NCCCN(C)C)cc1`, in series [8], the IC50 was > 20 µM (inactive). Also, the concentration at half-maximal activity (AC50) in series [9] was 24.7 µM (active). For the compound `CCN1CCCC(OC(=O)c2cc(-c3ccc(C)cc3)nc3ccccc23)C1` (stereo not drawn), the EC50 in series [10] is 31.1 µM (active); in series [11], > 120 µM (not active); in series [12] it was > 120 µM (not active). For the same compound, the AC50 in series [9] is 8.59 µM (active). With `O=C(Nc1cccc([N+](=O)[O-])c1)c1[nH]ncc1Cl`, in series [3], the concentration at half-maximal activity (AC50) was 0.847 µM (active). Same read-out and setting: the same measure for `COc1ccc(CNc2nc3ccccc3n2C(C)C)c(O)c1`: 0.146 µM (active). Regarding `Cc1cc(C(=O)NNc2ccc(F)cc2)no1`, the AC50 in series [13] is 2.05 µM (active); in series [3], 10.5 µM (active). For the compound `Cc1ccccc1N=C(S)NCc1ccc2[nH]c3c(c2c1)CCCC3`, the IC50 in [14] is > 100 µM (active). Turning to `CCOC(=O)C1(Cc2cccc(OC)c2)CCN(Cc2cccc(OCC)c2O)CC1`, the 50% inhibitory concentration (IC50) in series [6] is 8.3 µM (not active). As for `O=c1c(-c2ccc(F)cc2)nc2cnc(N3CCOCC3)nc2n1C[C@H]1CCCO1`, the AC50 entry in series [1] and in series [2] was “inconclusive” in each case.

As for `NCCCNC(=O)Cn1c(=O)c2c3c(sc2n(Cc2ccccc2)c1=O)CCCC3`, the IC50 in series [14] was > 100 µM (active). As to `CN(C)C(=O)c1ccc(-c2ccc3ncnc(N4CCC(C(=O)O)CC4)c3c2)cc1`, the half-maximal activity concentration (AC50) result in series [1] is “inconclusive”; in series [15], 39.8 µM (inconclusive). `COc1ccc(N2CCN(C(=O)NC3CCCCC3)CC2)cc1`: in [16], the IC50 is 137 µM (active). Besides, the AC50 in series [3] was 5.03 µM (active). With `O=C(CSCc1c(F)cccc1Cl)NCC1CCCO1` (stereo not drawn), in series [1], the concentration at half-maximal activity (AC50) entry is recorded as “inconclusive”.

As to `Cc1ccc(-c2nnc(COC(=O)c3cccs3)o2)cc1`, in [4], the IC50 is 17.5 µM (active).

As for `O=C(c1ccc([N+](=O)[O-])cc1[N+](=O)[O-])N1CCc2ccccc21`, the IC50 in [4] is 0.21 µM (active). The EC50 is 0.7 µM (active) in series [17] and > 60 µM (not active) in series [18].

As to `CCN(CC)S(=O)(=O)c1ccc(C)c(NC(S)=NNC(=O)C2CC2)c1`, the IC50 in [6] is > 50 µM (not active). Turning to `CN(C)CCCN(C(=O)c1ccc2c(c1)CCCC2)c1nc2ccc(Cl)cc2s1`, the IC50 in series [14] is > 100 µM (active); in series [8] it was > 20 µM (inactive).

`COc1cc(C(=O)NCc2ccc3c(c2)cc(C)n3C)cc(OC)c1OC`: the IC50 in [6] was > 50 µM (not active). As to `O=C(Nc1cccc(C(F)(F)F)c1)c1ccc(Cn2cc(Br)cn2)o1`, the figures for the half-maximal activity concentration (AC50) in series [19] and in series [20] were 22.4 µM (inconclusive) and 29.6 µM (active), respectively.

As for `COCCCN=C(S)NNC(=O)C1CC1c1ccc(C(C)(C)C)cc1` (stereo not drawn), the IC50 in series [6] is > 50 µM (not active). In the case of `COc1cc(/C(C)=N/NC(=O)CN2CCN(S(=O)(=O)c3ccc(C)cc3)CC2)ccc1O`, the concentration at half-maximal activity (AC50) in series [3] was 3.76 µM (active). On the same count and under the same terms, the same measure for `Cn1cccc1CC(=O)N/N=C/c1ccc([N+](=O)[O-])cc1`: 6.99 µM (active). `C/C(=N\NC(=O)c1ccc(Cl)cc1)c1ccc(Br)s1`: the EC50 in series [17] is 1.91 µM (active). For the same compound, the AC50 entry was “inconclusive” in series [1], 17.8 µM (inconclusive) in series [2] (read-out: AC50) and 14.1 µM (inconclusive) in [21].

With `CC(C)(C)NC[C@H](O)COc1nsnc1N1CCOCC1` [TIMOLOL], in series [1], the AC50 entry was “inactive”.
